Counter-ions that a name gives are not always drawn.
The molecules below were run against T1, human PLK4 (Homo sapiens, UniProt O00444) (assay: PLK4 Inhibition Assay (indirect ELISA)). Conditions: 15 μM ATP, 4 nM GST-PLK4; read-out: PLK4 IC50 Ranges.
T1 construct: amino terminal GST fusion of residues 1-391 of human PLK4; made in house; host or cells: E. coli
T1 sequence (O00444 1-391): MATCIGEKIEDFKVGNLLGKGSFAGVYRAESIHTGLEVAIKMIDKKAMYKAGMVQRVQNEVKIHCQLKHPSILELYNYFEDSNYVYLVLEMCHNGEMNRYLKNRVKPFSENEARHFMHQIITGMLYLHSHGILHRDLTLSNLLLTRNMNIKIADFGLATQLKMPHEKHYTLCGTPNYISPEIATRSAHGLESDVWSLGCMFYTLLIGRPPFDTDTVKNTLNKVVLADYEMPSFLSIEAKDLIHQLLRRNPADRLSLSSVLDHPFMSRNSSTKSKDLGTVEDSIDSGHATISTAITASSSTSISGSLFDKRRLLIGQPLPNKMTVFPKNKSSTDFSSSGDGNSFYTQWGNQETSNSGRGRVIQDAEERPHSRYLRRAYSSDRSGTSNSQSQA
Assay type: biochemical
Procedure: The protein was purified from clarified cell extracts after induction at 15° C. overnight using glutathione sepharose, gel permeation chromatography, and ion exchange (Resource Q). The resulting protein was dephosphorylated with lambda phosphatase (NEB cat #P0753), and resolved from the phosphatase using gluthione sepharose. The dephosphorylated GST-PLK4 was stored in aliquots at −80° C. until use. PLK4 activity was measured using an indirect ELISA detection system. […] Compounds were pre-incubated in the presence of enzyme for 15 minutes prior to addition of ATP and the activity remaining quantified using the above described activity assay. […] The IC50 value was determined using a non-linear 4 point logistic curve fit (XLfit4, IDBS) with the formula; (A+(B/(1+((x/C)^D)))), where A=background value, B=range, C=inflection point, D=curve fit parameter.
Work on `O=C1Nc2cc(-c3cccnc3)ccc2C1=Cc1ccc2cn[nH]c2c1` (mixture of isomers) [Example A28, (E and Z)-3-(3-((1H-indazol-6-yl)methylene)-2-oxoindolin-6-yl)pyridinium 2,2,2-trifluoroacetate] yielded an IC50 of 5 to 50 µM. Molecule `Nc1n[nH]c2ccc(C=C3C(=O)Nc4ccccc43)cc12` (mixture of isomers) [Example A40, (E & Z)-3-((3-amino-1H-indazol-5-yl)methylene)indolin-2-one] has an IC50 of 5 to 50 µM. For `COC(=O)c1cccc2c1NC(=O)C2=Cc1ccc2cn[nH]c2c1` (mixture of isomers) [Example A46, (E and Z)-methyl 3-((1H-indazol-6-yl)methylene)-2-oxoindoline-7-carboxylate], the IC50 was less than 5 µM. `O=CNc1cccc2c1NC(=O)C2=Cc1ccc2cn[nH]c2c1` (mixture of isomers) [Example A50, (E and Z)—N-(3-((1H-indazol-6-yl)methylene)-2-oxoindolin-7-yl)formamide] showed an IC50 of less than 5 µM. `CN1CCN(C(=O)/C=C/c2n[nH]c3cc(C=C4C(=O)Nc5ccccc54)ccc23)CC1` (mixture of isomers) [Example A66, (E and Z)-3-((3-((E)-3-(4-methylpiperazin-1-yl)-3-oxoprop-1-enyl)-1H-indazol-6-yl)methylene)indolin-2-one] showed an IC50 of less than 5 µM. For `O=C1Nc2ccc(C(F)(F)F)cc2C1=Cc1ccc2cn[nH]c2c1` (mixture of isomers) [Example A82, (E and Z)-3-((1H-indazol-6-yl)methylene)-5-(trifluoromethyl)-indolin-2-one], the IC50 was less than 5 µM. Molecule `O=C1Nc2ccccc2C1=Cc1ccc2c(-c3cc4ccccc4[nH]3)n[nH]c2c1` (mixture of isomers) [Example A90, (E and Z)-3-((3-(1H-indol-2-yl)-1H-indazol-6-yl)methylene)indolin-2-one] has an IC50 of less than 5 µM. Work on `O=C1Nc2ccccc2C1=Cc1ccc2c(-c3cnc4ccccc4c3)n[nH]c2c1` (mixture of isomers) [Example A95, (E and Z)-3-((3-(quinolin-3-yl)-1H-indazol-6-yl)methylene)indolin-2-one] yielded an IC50 of less than 5 µM. Molecule `O=C1Nc2ccccc2C1=Cc1ccc2c(-c3ccn[nH]3)n[nH]c2c1` (mixture of isomers) [Example A98, (E and Z)-3-((3-(1H-pyrazol-5-yl)-1H-indazol-6-yl)methylene)-indolin-2-one] has an IC50 of less than 5 µM. Work on `Cn1ccnc1/C=C/c1n[nH]c2cc(C=C3C(=O)Nc4ccccc43)ccc12` (mixture of isomers) [Example A105, (E and Z)-3-((3-((E)-2-(1-methyl-1H-imidazol-2-yl)vinyl)-1H-indazol-6-yl)methylene)indolin-2-one] yielded an IC50 of less than 5 µM. `O=C1Nc2ccccc2C1=Cc1ccc2[nH]nc(/C=C/c3ccncc3)c2c1` (mixture of isomers) [Example A131, (E and Z)-3-((3-((E)-2-(pyridin-4-yl)vinyl)-1H-indazol-5-yl)-methylene)indolin-2-one hydrochloride] gave an IC50 of less than 5 µM. For `O=C1Nc2ccccc2C1=Cc1ccc2c(/C=C/c3ccc(CN4CCOCC4)cc3)n[nH]c2c1` (mixture of isomers) [Example A154, (E and Z)-3-((3-(4-(morpholinomethyl)styryl)-1H-indazol-6-yl)-methylene)indolin-2-one], the IC50 was less than 5 µM. Work on `CN1CCN(c2ccc(-c3n[nH]c4ccc(C=C5C(=O)Nc6ccccc65)cc34)cn2)CC1` (mixture of isomers) [Example A155, (E and Z)-3-((3-(6-(4-methylpiperazin-1-yl)pyridin-3-yl)-1H-indazol-5-yl)methylene)indolin-2-one] yielded an IC50 of less than 5 µM. Molecule `O=C1Nc2ccccc2/C1=C\c1ccc2c(I)n[nH]c2c1` [Example A39, (E)-3-((3-iodo-1H-indazol-6-yl)methylene)indolin-2-one] has an IC50 of less than 5 µM. In the case of `O=C1Nc2c(Br)cccc2/C1=C\c1ccc2cn[nH]c2c1` [Example A44, (E)-3-((1H-indazol-6-yl)methylene)-7-bromoindolin-2-one], the IC50 is reported as less than 5 µM.

Source: patent US8765748B2, “Indazolyl, benzimidazolyl, benzotriazolyl substituted indolinone derivatives as kinase inhibitors useful in the treatment of cancer” (University Health Network, priority 2007, dated 2014)
